According to US20240130675A1, “Methods for Treating Autism Spectrum Disorder” (The General Hospital Corporation, priority 2021, published 2024):

Columns and labels:
youth with ASD [1] = assay: 12-week RCT: associated psychopathology and global functioning (ADHD-RS, CASI-ANX, CDRS-R, GAF); format: in vivo, human; conditions: MEM [N = 16]
Protocol: (§1) This study was a 12-week, randomized, double-blind, placebo-controlled, parallel group clinical trial of memantine in youth with ASD. Youth with ASD who met the eligibility criteria were randomized to receive either memantine or placebo during the course of the 12-week trial. Participants underwent multimodal MRI scans prior to and upon completion of the 12-week trial. Participants were assessed weekly during the titration phase (baseline to Week 4) and at midpoint (Week 6), Week 9, and completion (Week 12) during the maintenance phase. At each study visit, safety and efficacy were assessed by administering measures of efficacy (CGI, GAF), tolerability (assessing treatment-emergent AEs), and safety (vital signs, including weight). At baseline, midpoint, and endpoint (completion/early termination) severity of autism was assessed by administering measures of autism severity (SRS-2, ABC-SW, CY-BOCS-PDD) and associated psychopathology (ADHD-RS, CDRS-R, CASI-ANX).
Additional treatment response of autism impairment was examined for the ASD subdomains by assessing change with treatment in the severity of the SRS-2 subscales and the Children's Yale Brown Obsessive Compulsive Scale modified for PDD (CY-BOCS-PDD) (Goodman et al., 1986 (Rev 89); Scahill et al., 2006) to assess change with treatment in the ritualistic behaviors associated with ASD. Treatment response of frequently associated psychopathologies with ASD was assessed by administering the clinician-rated Attention Deficit Hyperactivity Disorder Rating Scale (ADHD-RS) (DuPaul, Power, Anastopoulos, & Reed, 1998), Children's Depression Rating Scale-Revised (CDRS-R)(Poznanski et al., 1985), and CASI-4 ASD Anxiety Scale (CASI-4 ASD Anxiety Scale (CASI-Anx)(Gadow et al., 2002). Change with treatment in the level of global functioning was assessed by the clinician-rated GAF.
The mixed-effects regression models used to analyze the secondary measures of efficacy predicted the outcome measure from treatment group (memantine versus placebo), study visit (continuous), and the treatment group-by-study visit interaction, which is our test of efficacy. To examine the effect of baseline PgACC glutamate activity level on the response to treatment, we predicted outcomes measures from treatment group, study visit (continuous), PgACC glutamate activity level (continuous), treatment group-by-study visit interaction, glutamate activity level-by-study visit interaction, treatment group-by-glutamate activity level interaction, and treatment group-by-glutamate activity level-by-study visit interaction. All mixed-effects regression models had random intercepts by subject ID, used robust standard errors to account for the repeated measures on each subject, and used an independent covariance structure for the random effects. […] All missing data were assumed to be missing at random.
Effect sizes are presented as standardized mean differences (SMD) for continuous outcomes and odds ratios (OR) for dichotomous outcomes. The SMDs for the difference of the changes in scores over time between memantine and placebo and between high glutamate and normal glutamate were calculated as Cohen's d using the following calculations: the difference in the change scores between the two groups divided by the pooled standard deviation. The SMDs for changes in scores within groups were calculated as Cohen's d using the following calculation: difference in score from baseline to endpoint divided by the pooled standard deviation. For comparisons of memantine versus placebo and high glutamate versus normal glutamate, positive SMDs and ORs>1 indicate better improvement in the memantine group and high glutamate group, respectively. For comparisons of ASD versus healthy controls, positive SMDs indicate lower glutamate activity levels in the ASD group. […]

adults with HF-ASD [2] = assay: Uncontrolled (pilot) trial of memantine in adults with HF-ASD (Joshi et al., 2016); format: in vivo, human; conditions: estimate from pilot study, used for sample size
Text: Memantine is a moderate-affinity, non-competitive, NMDA receptor antagonist that is approved by the U.S. Food and Drug Administration (FDA) for the treatment of moderate to severe Alzheimer's disease (U.S. FDA, 2003).
We determined a priori that we would need a sample size of 40 participants in total (20 participants per group) to detect this difference in response rate at a 2-sided significance level of 0.05 with 80% power. Our final sample consisted of 16 participants in the memantine group and 19 participants in the placebo group with response data. With this sample size, we had […] power to detect the aforementioned difference in response rates.

adults with HF-ASD [3] = conditions: cited from earlier work
youth with ASD [4] = assay: 12-week RCT: safety and tolerability (treatment-emergent AEs, vital signs, early terminations, rescue medication); format: in vivo, human
Protocol: as §1
Safety and tolerability of memantine was monitored by administering a complete physical examination, battery of blood tests (complete blood count, electrolytes, liver function test, thyroid function test, and random glucose levels), Urine tests (drug screen and pregnancy screen [women of child-bearing potential only]), and EKG at baseline and endpoint of the trial, and by recording treatment-emergent AEs and obtaining vital signs (pulse, blood pressure, weight) at each study visit.
Safety results were summarized descriptively by treatment group and baseline glutamate activity level (high versus normal) and compared at the end of the study using Fisher's exact or Pearson's chi-square tests. All analyses were performed using Stata (Version 16) (StataCorp, Stata Statistical Software: Release 16. College Station, TX: StataCorp LLC. 2019).

**Q.** Which results are given for `CC12CC3CC(C)(C1)CC(N)(C3)C2` [MEM, memantine]?
**A.** ADHD-RS (youth with ASD [1]; BL (baseline)): 29.1 ± 13.6; CASI-ANX (youth with ASD [1]; BL (baseline)): 14.7 ± 8.6; CDRS-R (youth with ASD [1]; BL (baseline)): 31.4 ± 17.1; GAF (youth with ASD [1]; BL (baseline)): 53.6 ± 2.7; ADHD-RS (youth with ASD [1]; EP (endpoint)): 18.8 ± 10.9; CASI-ANX (youth with ASD [1]; EP (endpoint)): 7.4 ± 5.6; CDRS-R (youth with ASD [1]; EP (endpoint)): 22.8 ± 7.5; GAF (youth with ASD [1]; EP (endpoint)): 61.8 ± 4.4; ADHD-RS (youth with ASD [1]; MD (mean difference)): −10.3 ± 10.6; CASI-ANX (youth with ASD [1]; MD (mean difference)): −7.3 ± 6.2; CDRS-R (youth with ASD [1]; MD (mean difference)): −8.7 ± 10.8; GAF (youth with ASD [1]; MD (mean difference)): 8.2 ± 5.9; Estimated share of participants on memantine responding to treatment (adults with HF-ASD [2]): 57%; Social behaviors (adults with HF-ASD [3]; 12-week treatment, 20 mg/day, adults with HF-ASD): significant improvement in social behaviors; Responders (adults with HF-ASD [3]; pilot study, 15-20 mg daily): four out of seven; Mean # of AEs (youth with ASD [4]; Glu Based Sample [MEM] High [N = 10]): 2.4 ± 1.3; Mean # of AEs (youth with ASD [4]; Glu Based Sample [MEM] Normal [N = 8]): 2.8 ± 1.0; Early Terminations: Treatment Limiting AEs (youth with ASD [4]; Unselected Sample MEM [N = 21]): Four; Mean # of AEs (youth with ASD [4]; Unselected Sample MEM [N = 21]): 2.2 ± 1.2; Participants completed trial (12 weeks) (youth with ASD [4]; Unselected Sample MEM [N = 21]): 16 N; Severe AEs (youth with ASD [4]; Unselected Sample MEM [N = 21]): Two; Severe AEs: Headache (youth with ASD [4]; Unselected Sample MEM [N = 21]): 5%; Severe AEs: Irritability + Agitation (Worsening) (youth with ASD [4]; Unselected Sample MEM [N = 21]): 5%
